# Paper PMC10609148 (Molecules, 2023)
# pIC50: −log10 of the molar value. “Also recorded” adds a separate entry of the source.
# How the values were obtained:
# [1] = target: Aβ(1–42)/calbindin-D28k complex (Homo sapiens, UniProt P05067); test: Antagonism of Aβ(1–42) HiLyte-Fluor555/calbindin-D28k interaction (fluorescence); format: biochemical, human recombinant calbindin-D28k
# Description: The purified protein were aliquoted and conserved in 30% glycerol at −80 °C until use.
# Aβ(1–42)/CaM complex = target: T1, Aβ(1–42)/CaM complex (Homo sapiens, UniProt P05067); test: Antagonism of Aβ(1–42) HiLyte-Fluor555/CaM interaction (fluorescence); format: biochemical, Bovine brain CaM
# T1 construct: purchased Merck-Sigma-Aldrich (CaM); AnaSpec (labelled Aβ peptide); host or cells: bovine brain
# Description: Human Aβ(1–42)-HiLyte^TM-Fluor555 was purchased from AnaSpec (Freemont, CA, USA). […] His6 was purchased from Quimigen (Madrid, Spain). Bovine brain CaM and Thrombin Clean Cleavage^TM kit were purchased from Merck-Sigma-Aldrich (Madrid, Spain).
# Fluorescence measurements were performed using a Fluoromax+ fluorescence Spectrophotometer (Horiba Jobin Yvon IBH Ltd., Glasgow, UK) in quartz cuvettes of 1cm light pathlength with a total volume of 2.5 mL at room temperature (24–25 °C), with excitation and emission slits of 5 nm.
# The measurements of the kinetics of fluorescence have been performed in buffer 50 mM N-[2-hydroxyethyl] piperazine-N′-[2-ethanesulfonic acid], 100 mM KCl and 50 µM CaCl2 (pH 7.05).
# CaM and calbindin-D28k were added from concentrated stock solutions freshly prepared in the assay buffer used in the fluorescence measurements, such that the total added volume was always lower than 10 μL.
# [2] = test system: human recombinant Cb5R with a His6-tag; test: FRET between FAD of His6-tagged Cb5R and Aβ(1–42) HiLyte-Fluor555; format: binding; details: calculated for saturation by Aβ(1–42) HiLyte-Fluor555
# Description: (§1) The assay buffer was 20 mM phosphate/0.1 mM diethylenetriaminepentaacetic acid (pH 7).
# [3] = test system: human recombinant Cb5R with a His6-tag; test: Titration of FAD fluorescence of His6-tagged Cb5R; format: binding
# Description: as §1
# [4] = cited from earlier work
# Source text: Aβ peptides bind to ganglioside-clustered raft-like membrane microdomains, which foster the formation of Aβ oligomers and fibrils in a cholesterol-dependent manner. […] Moreover, plasma membrane lipid rafts play an active role in extracellular Aβ uptake and internalization in neurons. After the uptake of extracellular Aβ(1–42) into neurons, the intracellular ...
# [5] = test system: human recombinant Cb5R with a His6-tag; test: Inhibition of NADH-dependent Cb5 reductase activity of His6-tagged Cb5R; format: biochemical; details: pH 7, 5 μM Cb5, 0.25 mM NADH
# Description: The reaction was started by the addition of 0.25 mM NADH after 10 min preincubation of the Cb5R in the assay medium, and initial rates were measured during periods of time ranging between 5 and 10 min, with a less than 10% drop in the Cb5 concentration in the assay cuvette. The Cb5 reductase activity was calculated from the change of absorbance at 550 nm using a differential extinction coefficient between reduced and oxidized Cb5 of 16.5 mM^−1·cm^−1, as in previous works [67, 69].
# [6] = 177 μM in phosphate-buffered saline; Tricine-SDS-PAGE; cited from earlier work
# T1 sequence (P05067 672-713 limits assumed, one chain of several): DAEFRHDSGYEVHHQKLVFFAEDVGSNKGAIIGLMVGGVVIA
# Chain of Aβ(1–42)/calbindin-D28k complex (P05067 672-713 limits assumed, one chain of several): as above
molecule,measurement,setting,value
"N[C@@H](Cc1c[nH]cn1)C(=O)N[C@@H](Cc1c[nH]cn1)C(=O)N[C@@H](Cc1c[nH]cn1)C(=O)N[C@@H](Cc1c[nH]cn1)C(=O)N[C@@H](Cc1c[nH]cn1)C(=O)N[C@@H](Cc1c[nH]cn1)C(=O)O [His6, hexa-histidine]",pIC50,[1],≥ 6.00
same,pIC50,Aβ(1–42)/CaM complex,≥ 6.00
Aβ(1–42) HiLyte^TM-Fluor555: Human Aβ(1–42) with HiLyte-Fluor555 dye covalently bound to ASP1; AnaSpec,quenching of donor FAD fluorescence at saturation,[2],70 ± 7%
Aβ(1–42): prevalent Aβ peptide found in the amyloid plaques of AD patients; supplied by StabVida and GenicBio,fitted maximum of FAD fluorescence increase (ΔF/F0),"[3]; Figure 5 fit, 1:1 binding, triplicate",0.5227
same,effect of Cb5 on the titration of FAD fluorescence,[3]; absence vs presence of 5 μM Cb5,the same in the absence and presence of 5 μM of Cb5; also recorded: not a significant difference
same,critical concentration that induces fibrillization,[4],submicromolar range
same,inhibition of Cb5 reductase activity (in words),[5],potent inhibition of this activity by nanomolar Aβ(1–42) concentrations
same,fraction of monomers and higher molecular species,[6],almost undetectable
